Results: patent US20230114728A1 (Venatorx Pharmaceuticals, Inc., priority 2019, published 2023)
≈ marks a conversion by molar mass, not a printed value.

Key:
E. coli K12 PBP3 = target: T1, E. coli K12 PBP3 (Escherichia coli, UniProt P0AD68); test: biochemical; format: binding
T1 construct: made in house
Outline: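 Fluorescence polarization (ex 490/em 520 nm) competition of inhibitors against Bocillin-FL at 0.1 μM, read up to 60 min. Final PBP levels: E. coli PBP3 1.5 μM; A. baumannii PBP2 2.5 μM, PBP3 0.2 μM in Tris pH 8.0/NaCl/glycerol/Tween 20; N. gonorrhoeae PBP2 […] in Hepes pH 8.0/NaCl/glycerol. EC50 = concentration halving PBP-bound Bocillin-FL.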

N. gonorrhoeae FA1090 = test: Liquid broth MIC in Fastidious broth; format: cell-based; conditions: Neisseria gonorrhoeae; N. gonorrhoeae strain FA1090; Fastidious broth; read-out: Minimum Inhibitory Concentration, N. gonorrhoeae FA1090
Method: (§1) Example V: In Vitro Antibacterial Assays for N. gonorrhoeae Strains
(§2) Additional antibacterial testing of the series was performed in 8 reference strains of N. gonorrhoeae (ATCC 49226, FA1090, WHO G, WHO L, WHO K, H041, WHO Z, and WHO Q). ATCC 49226, FA1090, WHO G, and WHO L produce wild type or wild-type like PBP2. WHO K, H041, WHO Z, and WHO Q produce mosaic PBP2. Liquid broth-based assays were used for antibacterial testing of PBP inhibitors in Neisseria gonorrhoeae. Briefly, cryo-preserved bacterial cultures of clinical strains were streaked for isolation on Chocolate Agar (72 g/L (2×) GC Agar Base (BD #228950) and 2% (2×) Hemoglobin was autoclaved at 121° C. for 20 minutes to sterilize. Once cooled to ˜50° C. the 2× GC Agar Base and 2× Hemoglobin solutions are combined and 1% IsoVitaleX Enrichment (BD #211876) was added to the solution). Strains were incubated at 36° C. and 5% CO2 to allow growth of colonies, 24 hours before inoculum preparation. 2-fold serial dilutions of test compounds were conducted in a 96 well plate with a final volume of 75 μL per well at 2-fold the final desired concentration in Fastidious broth (Remel #R07664). For preparation of assay inoculum, a direct suspension was prepared by aseptically swabbing all colonies from agar plates into culture tubes containing 2 mL of fresh sterile saline. After the dilution plates were set up, direct suspensions were then diluted in a cuvette containing sterile saline and the optical density was measured at 600 nm. Inocula were diluted such that 75 μL of this culture in Fastidious broth results in a starting bacterial concentration of 5×10^5 CFU/mL when added to the dilution plates. The plates were incubated for ˜24 hours at 36° C. and 5% CO2. The MIC was read visually as the lowest concentration well with <10% bacterial growth compared to wells of full growth.

N. gonorrhoeae WHO K = test: Liquid broth MIC in Fastidious broth; format: cell-based; conditions: Neisseria gonorrhoeae, read-out: Minimum Inhibitory Concentration, N. gonorrhoeae WHO K
Method: as §1, §2

N. gonorrhoeae WHO Z = test: Liquid broth MIC in Fastidious broth; format: cell-based; conditions: Neisseria gonorrhoeae, read-out: Minimum Inhibitory Concentration, N. gonorrhoeae WHO Z
Method: as §1, §2

N. gonorrhoeae H041 = test: Liquid broth MIC in Fastidious broth; format: cell-based; conditions: Neisseria gonorrhoeae, H041, read-out: Minimum Inhibitory Concentration, N. gonorrhoeae H041
Method: as §1, §2

N. gonorrhoeae WHO L = test: Liquid broth MIC in Fastidious broth; format: cell-based; conditions: Neisseria gonorrhoeae; N. gonorrhoeae strain WHO L; Fastidious broth; read-out: Minimum Inhibitory Concentration, N. gonorrhoeae WHO L
Method: as §1, §2

N. gonorrhoeae WHO G = test: Liquid broth MIC in Fastidious broth; format: cell-based; conditions: Neisseria gonorrhoeae; N. gonorrhoeae strain WHO G; Fastidious broth; read-out: Minimum Inhibitory Concentration, N. gonorrhoeae WHO G
Method: as §1, §2

[1] = tested on: N. gonorrhoeae ATCC 49226; test: Liquid broth MIC in Fastidious broth; format: cell-based; conditions: Neisseria gonorrhoeae, ATCC49226; N. gonorrhoeae strain ATCC 49226; Fastidious broth; read-out: Minimum Inhibitory Concentration, N. gonorrhoeae ATCC 49226
Method: as §1, §2

E. coli AG100 = test: Broth microdilution MIC in CAMHB; format: cell-based; conditions: Escherichia coli; E. coli AG100 (wild-type parent); MHB; read-out: Minimum Inhibitory Concentration, E. coli AG100
Outline: (§3)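 CLSI broth microdilution in CAMHB: 2-fold compound dilutions inoculated at 2-8×10^5 CFU/mL from 3-5 h log-phase cultures. Incubated at 37 °C for 16-20 h (Enterobacteriaceae, Pseudomonas); MIC read visually as lowest concentration without growth. Strains include hyper-permeable and efflux-deficient mutants.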

[2] = tested on: P. aeruginosa (ΔmexAB-oprM); test: Broth microdilution MIC in CAMHB; format: cell-based; conditions: Pseudomonas aeruginosa, read-out: Minimum Inhibitory Concentration, P. aeruginosa ΔmexAB-OprM
Outline: as §3

[3] = tested on: K. pneumoniae UMM producing SHV-5 and KPC-2; test: Broth microdilution MIC in CAMHB; format: cell-based; conditions: Klebsiella pneumoniae, read-out: Minimum Inhibitory Concentration, K. pneumoniae UMM
Outline: as §3

E. coli D22 = test: Broth microdilution MIC in CAMHB; format: cell-based; conditions: Escherichia coli; E. coli D22 (hyper-permeable); MHB; read-out: Minimum Inhibitory Concentration, E. coli D22
Outline: as §3

A. baumannii ATCC 19606 = test: Broth microdilution MIC in CAMHB; format: cell-based; conditions: Acinetobacter baumannii, ATCC19606; MHB; read-out: Minimum Inhibitory Concentration, A. baumannii ATCC 19606
Outline: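 Colonies from cation-adjusted Mueller Hinton agar are grown in broth (3-5 h, 37° C), adjusted by OD600, and added at 2-8×10^5 CFU/mL to 2-fold compound dilutions. After 16-20 h at 37° C, the lowest concentration without growth is taken as MIC.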

[4] = tested on: K. pneumoniae 848844 producing SHV-11 and KPC-2; test: Broth microdilution MIC in CAMHB; format: cell-based; conditions: Klebsiella pneumoniae, read-out: Minimum Inhibitory Concentration, K. pneumoniae 848844
Outline: as §3

[5] = tested on: K. pneumoniae SI-117 producing VIM-1; test: Broth microdilution MIC in CAMHB; format: cell-based; conditions: Klebsiella pneumoniae, read-out: Minimum Inhibitory Concentration, K. pneumoniae SI-117
Outline: as §3

P. aeruginosa ATCC 27853 = test: Broth microdilution MIC in CAMHB; format: cell-based; conditions: Pseudomonas aeruginosa, ATCC27853; MHB; read-out: Minimum Inhibitory Concentration, P. aeruginosa ATCC 27853
Outline: as §3

E. coli AG100A = test: Broth microdilution MIC in CAMHB; format: cell-based; conditions: Escherichia coli, read-out: Minimum Inhibitory Concentration, E. coli AG100A
Outline: as §3

E. coli 901C = test: Broth microdilution MIC in CAMHB; format: cell-based; conditions: Escherichia coli; E. coli 901C (hyper-permeable); MHB; read-out: Minimum Inhibitory Concentration, E. coli 901C
Outline: as §3

P. aeruginosa ATCC 35151 = test: Broth microdilution MIC in CAMHB; format: cell-based; conditions: Pseudomonas aeruginosa, ATCC35151; MHB; hyper-permeable strain; read-out: Minimum Inhibitory Concentration, P. aeruginosa ATCC 35151
Outline: as §3

E. coli ATCC 25922 = test: Broth microdilution MIC in CAMHB; format: cell-based; conditions: Escherichia coli, ATCC25922; E. coli ATCC 25922; MHB; read-out: Minimum Inhibitory Concentration, E. coli 25922
Outline: as §3

P. aeruginosa PBP3 = target: T2, P. aeruginosa PBP3 (Pseudomonas aeruginosa, UniProt G3XD46); test: Bocillin-FL fluorescence polarization competition binding assay, P. aeruginosa PBP3; conditions: fluorescence polarization competition binding assay using Bocillin-FL
T2 construct: made in house
Outline: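 Binding of boronic acid inhibitors to purified Pseudomonas aeruginosa (PA01) PBP3 was measured by fluorescence polarization competition with Bocillin-FL, a fluorescent penicillin V. Reactions of 80 μl contained 0.75 μM PBP3 and 0.1 μM Bocillin-FL in 50 mM Hepes (pH 8.0), 300 mM NaCl and 5% (v/v) glycerol, in black 384-well plates. FP (Excitation 490 nm, Emission 520 nm) was read for up to 60 minutes. EC50 is the concentration that halves PBP-bound Bocillin-FL.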

[6] = Bocillin-FL fluorescence polarization competition binding assay, A. baumannii PBP3; conditions: fluorescence polarization competition binding assay using Bocillin-FL; column 3; read-out: 4. baumannii PBP1a Potency
Source text: (§4) Example I: Experimental Method for Penicillin-Binding Protein Binding Assays with Bocillin-FL Via Fluorescence Polarization
(§5) To determine the ability of boronic acid-based test PBP inhibitors to bind Penicillin Binding Proteins (PBPs), Bocillin-FL (fluorescently-labeled penicillin V; ThermoFisher Scientific) was used in a fluorescence polarization (FP) competition binding assay to assess inhibitor binding to PBP2, PBP3 or PBP4 from Escherichia coli (K12), PBP3 from Pseudomonas aeruginosa (PA01), PBP1a, PBP2 and PBP3 from Acinetobacter baumannii (ATCC 19606), and PBP2 from Neiserria gonorrheae (FA19). PBPs were cloned and purified as described previously (E. coli PBPs, King, D. T, et al., ACS Infectious Diseases 2015, 1, 175-184; P. aeruginosa PBP3, Han et. al., PNAS 2010, 107 (51), 22002-22007; A. baumannii PBPs, Penwell et. al., Antimicrob. Agents Chemother. 2015, 59 (3), 1680-1689; N. gonorrhoeae PBP2, Singh et. al., J Biol. Chem. 2019, 294 (38), 14020-14032). To establish assay conditions for competition binding, enzyme titration/saturation binding experiments were initially performed. Bocillin-FL was prepared at 0.2 μM in a buffer comprised of 50 mM Hepes (pH 8.0), 300 mM NaCl and 5% (v/v) glycerol for reactions with E. coli, P. aeruginosa and N. gonorrhoeae PBPs, and 25 mM Tris (pH 8.0), 200 mM NaCl and 10% (v/v) glycerol and 0.005% (v/v) Tween 20 for reactions with A. baumannii PBPs. Saturation binding was performed by mixing 40 μl of PBP solutions ranging in concentrations from 0-24 μM with 40 μl of the 0.2 μM Bocillin-FL solution, in individual wells of a black 384-well microplate. FP was measured immediately upon mixing (Excitation, 490 nm; Emission, 520 nm; g-factor, 0.96), using a Cytation3 (BioTek) microplate reader and measured continuously for up to 120 minutes. […] The competition binding assay (80 μl final volume) was validated using beta-lactams and PBPs at final concentrations of: 1.5 μM, E. coli PBP3; 0.75 μM, P. aeruginosa PBP3; 1 μM A. baumannii PBP1a; 2.5 μM A. baumannii PBP2; 0.2 μM A. baumannii PBP3; and […] N. gonorrhoeae PBP2. Bocillin-FL was at 0.1 μM (0.05 μM with A. baumannii PBP1a) and beta-lactam concentrations ranged from 0-1000 μM. […] Bocillin-FL was added and the FP immediately measured for up to 60 minutes (90 minutes for E. coli PBP2). […] The beta-lactam potency was reported as the concentration of beta-lactam required to reduce the amount of PBP bound-Bocillin-FL by 50% (EC50). […] Binding assays for boronic acid PBP inhibitors were performed in an identical fashion for the respective PBPs

N. gonorrhoeae PBP2 = target: T3, N. gonorrhoeae PBP2 (Neisseria gonorrhoeae, UniProt P08149); test: Bocillin-FL fluorescence polarization competition binding assay, N. gonorrhoeae PBP2; conditions: N. gonorrhoeae PBP2; assay validation with beta-lactams; read-out: EC50 (concentration of beta-lactam required to reduce the amount of PBP bound-Bocillin-FL by 50%)
T3 construct: made in house
Source text: as §4, §5

T1 sequence (P0AD68 1-577): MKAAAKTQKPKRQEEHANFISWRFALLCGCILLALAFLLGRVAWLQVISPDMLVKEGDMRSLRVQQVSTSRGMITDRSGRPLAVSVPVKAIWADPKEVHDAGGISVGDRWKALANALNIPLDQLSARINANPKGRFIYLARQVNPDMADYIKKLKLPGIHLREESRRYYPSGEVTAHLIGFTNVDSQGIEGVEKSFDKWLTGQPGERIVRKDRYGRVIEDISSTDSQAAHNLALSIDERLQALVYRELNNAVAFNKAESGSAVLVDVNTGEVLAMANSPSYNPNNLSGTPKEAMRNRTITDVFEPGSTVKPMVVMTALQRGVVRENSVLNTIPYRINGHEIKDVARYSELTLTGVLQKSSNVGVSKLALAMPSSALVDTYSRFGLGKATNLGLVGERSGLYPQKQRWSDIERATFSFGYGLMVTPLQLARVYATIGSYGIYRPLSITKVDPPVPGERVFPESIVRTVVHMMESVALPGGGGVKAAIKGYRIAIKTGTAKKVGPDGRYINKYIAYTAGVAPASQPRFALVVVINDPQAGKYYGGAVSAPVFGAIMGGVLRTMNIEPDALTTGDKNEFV
T3 sequence (P08149 whole entry): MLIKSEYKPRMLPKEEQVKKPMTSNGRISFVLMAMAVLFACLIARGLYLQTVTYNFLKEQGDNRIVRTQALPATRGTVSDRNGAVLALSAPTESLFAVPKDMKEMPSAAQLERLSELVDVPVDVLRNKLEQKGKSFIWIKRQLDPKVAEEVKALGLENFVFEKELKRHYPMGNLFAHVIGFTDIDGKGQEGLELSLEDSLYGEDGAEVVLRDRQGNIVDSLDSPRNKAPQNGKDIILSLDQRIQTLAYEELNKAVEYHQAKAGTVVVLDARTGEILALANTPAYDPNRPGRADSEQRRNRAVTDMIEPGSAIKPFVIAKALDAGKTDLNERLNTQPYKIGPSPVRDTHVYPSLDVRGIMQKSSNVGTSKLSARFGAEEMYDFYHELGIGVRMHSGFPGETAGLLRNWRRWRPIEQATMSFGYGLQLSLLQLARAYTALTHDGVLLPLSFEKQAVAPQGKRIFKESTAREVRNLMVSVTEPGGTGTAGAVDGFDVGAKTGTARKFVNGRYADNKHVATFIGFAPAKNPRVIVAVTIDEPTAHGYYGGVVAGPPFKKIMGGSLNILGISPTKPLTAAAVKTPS
T2 sequence (G3XD46 whole entry): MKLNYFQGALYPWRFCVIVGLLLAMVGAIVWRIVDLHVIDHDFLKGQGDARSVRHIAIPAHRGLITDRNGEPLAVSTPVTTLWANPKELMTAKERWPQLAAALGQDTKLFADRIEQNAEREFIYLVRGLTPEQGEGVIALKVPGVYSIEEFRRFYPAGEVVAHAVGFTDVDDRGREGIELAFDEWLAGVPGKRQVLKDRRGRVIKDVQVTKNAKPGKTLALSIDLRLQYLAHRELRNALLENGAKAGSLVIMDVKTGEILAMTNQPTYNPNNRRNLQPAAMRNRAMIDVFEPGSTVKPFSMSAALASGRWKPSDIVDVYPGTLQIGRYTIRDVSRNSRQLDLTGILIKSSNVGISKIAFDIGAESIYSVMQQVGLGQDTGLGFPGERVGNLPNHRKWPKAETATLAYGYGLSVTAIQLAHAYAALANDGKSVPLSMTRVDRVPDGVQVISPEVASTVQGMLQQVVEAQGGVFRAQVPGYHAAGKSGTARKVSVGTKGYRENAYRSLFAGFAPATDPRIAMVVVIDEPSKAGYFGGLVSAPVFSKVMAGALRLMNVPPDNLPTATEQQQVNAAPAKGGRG

Structure (SMILES): CC(C)(C)[C@@H](NC(=O)c1c(F)cc(O)c(O)c1Cl)C(=O)N[C@H]1Cc2ccc(F)c(C(=O)O)c2OB1O [Example 12, (R)-3-((R)-2-(2-chloro-6-fluoro-3,4-dihydroxybenzamido)-3,3-dimethylbutanamido)-7-fluoro-2-hydroxy-3,4-dihydro-2H-benzo[e][1,2]oxaborinine-8-carboxylic acid]
- EC50 (E. coli K12 PBP3): 30 to 500 µM
- MIC (N. gonorrhoeae FA1090): > 64 µg/mL
- MIC (N. gonorrhoeae WHO K): > 64 µg/mL
- MIC (N. gonorrhoeae WHO Z): > 64 µg/mL
- MIC (N. gonorrhoeae H041): > 64 µg/mL
- MIC (N. gonorrhoeae WHO L): > 64 µg/mL
- MIC (N. gonorrhoeae WHO G): > 64 µg/mL
- MIC [1]: > 64 µg/mL

Structure (SMILES): NCCCN1CCN(C(=O)N[C@@H](C(=O)N[C@H]2Cc3cccc(C(=O)O)c3OB2O)c2ncc(O)cc2F)C(=O)C1=O [Example 13, (R)-3-((R)-2-(4-(3-aminopropyl)-2,3-dioxopiperazine-1-carboxamido)-2-(3-fluoro-5-hydroxypyridin-2-yl)acetamido)-2-hydroxy-3,4-dihydro-2H-benzo[e][1,2]oxaborinine-8-carboxylic acid]
- MIC (E. coli AG100): 8 to 16 µg/mL (≈ 14 to 28 µM)
- MIC [2]: 2 to 4 µg/mL (≈ 3.49 to 6.99 µM)
- MIC [3]: 8 to 16 µg/mL (≈ 14 to 28 µM)
- MIC (E. coli D22): 2 to 4 µg/mL (≈ 3.49 to 6.99 µM)
- MIC (A. baumannii ATCC 19606): > 128 µg/mL
- MIC [4]: 32 to 64 µg/mL (≈ 55.9 to 112 µM)
- MIC [5]: 8 to 16 µg/mL (≈ 14 to 28 µM)
- MIC (P. aeruginosa ATCC 27853): 32 to 64 µg/mL (≈ 55.9 to 112 µM)
- MIC (E. coli AG100A): 0.5 to 1 µg/mL (≈ 0.874 to 1.75 µM)
- MIC (E. coli 901C): 0.5 to 1 µg/mL (≈ 0.874 to 1.75 µM)
- MIC (P. aeruginosa ATCC 35151): < 0.25 µg/mL
- MIC (E. coli ATCC 25922): 8 to 16 µg/mL (≈ 14 to 28 µM)
- P. aeruginosa PBP3 Potency (P. aeruginosa PBP3): D (D represents a potency <10 μM)
- EC50 (E. coli K12 PBP3): < 30 µM
- EC50 [6]: < 10 µM

Structure (SMILES): C=CC1=C(C(=O)O)N2C(=O)[C@@H](NC(=O)/C(=N\OCC(=O)O)c3csc(N)n3)[C@H]2SC1 [cefixime, reference compound]
- EC50 (N. gonorrhoeae PBP2): 0.26 µM
